This test relates to HBeAg (surrogate marker for cccDNA) in HepDES19 cells. Nature of the test: Engineered HepDES19 primary screen assay (HBeAg ELISA). The format is cell-based, HBV. The note with it: Hepatitis B virus, 120 h, HBeAg in culture supernatant, 5 days incubation, read-out: IC50 (HepDES19 primary screen assay, inhibition of extracellular HBeAg level). The source says:
The assay was employed to screen for cccDNA inhibitors. HepDES19 is a cccDNA-producing cell line. In this cell line, HBeAg in the cell culture supernatant as surrogate marker, as HBeAg production depends on cccDNA level and activity. HepDES19 is an engineered cell line which contains a 1.1 unit length HBV genome, and pgRNA transcription from the transgene is controlled by Tetracycline (Tet). In the absence of Tet, pgRNA transcription will be induced, but HBV e antigen (HBeAg) could not be produced from this pgRNA due to very short leader sequence before the HBeAg start codon and the start codon is disrupted. Only after cccDNA is formed, the missing leader sequence and start codon mutation would be restored from the 3′-terminal redundancy of pgRNA, and then HBeAg could be synthesized. Therefore, HBeAg could be used as a surrogate marker for cccDNA (Zhou, T. et al., Antiviral Res. (2006), 72(2), 116-124; Guo, H. et al., J. Virol. (2007), 81(22), 12472-12484).
HepDES19 cells were seeded at 2×10^6 cells per T150 flask and cultured with the culture medium (Dulbecco's Modified Eagle Medium: Nutrient Mixture F-12 [DMEM-F12, Gibco Cat. 11320-82], 10% Fetal Bovine Serum [FBS, Clontech Cat. 631101], 0.1 mM Non-Essential Amino Acids Solution [NEAA, Gibco Cat. 11140-050], 50 μg/mL Penicillin-Streptomycin [PS, Invitrogen Cat. 15140-163], 500 μg/mL Geneticin [G418, Invitrogen Cat. 10131-027]) containing 3 μg/mL Tet (Sigma, Cat. 87128) for 5 days. Cells were then seeded at 4×10^6 cells per T150 in the same culture medium as described above in the absence of Tet for 8 days. Cells were then harvested and frozen at density of 2×10^6 cells per mL. For compound testing, the frozen cells were thawed and seeded into 96-well plates at a density of 6×10^4 cells per well. At 24 hours after seeding, half log serial dilutions of compounds made with Dimethyl sulfoxide (DMSO, Sigma, Cat. D2650) were further diluted with the same culture medium as described above before they were added to the cells to reach desired final compound concentrations and 1% DMSO concentration. Plates were then incubated at 37° C. for another 5 days before measurement of HBeAg level and cell viability. Intracellular HBeAg level were measured with enzyme-linked immunosorbent assay (ELISA) kit (Shanghai Kehua Diagnostic Medical Products Co., Ltd). Cell viability was assessed using Cell Counting Kit-8 (DonJindo, Cat. CK04-20). IC50 values were derived from the dose-response curve using 4 parameter logistic curve fit method.
The compounds of the present invention were tested for their capacity to inhibit extracellular HBeAg level as described herein.
Regarding `COc1cc(C)cc(OCCNC(=O)C(=O)O)c1-c1cc(=O)c2cccc(Cl)c2o1` [Example 118], the IC50 amounted to 1.98 µM.
`Cc1ccc(-c2cc(=O)c3cccc(Cl)c3o2)c(OCCNC(=O)C(=O)O)c1` [Example 121]: the IC50 came out at 4.25 µM.
The figure for `O=C(O)CCNCCOc1cc(C(F)(F)F)ccc1-c1cc(=O)c2cccc(Cl)c2o1` [Example 124] is 5.88 µM; for `CNS(=O)(=O)NCCCOc1cc(C)ccc1-c1cc(=O)c2cccc(Cl)c2o1` [Example 107] it is 2.71 µM; for `CC(NCCOc1cc(C(F)(F)F)ccc1-c1cc(=O)c2cccc(Cl)c2o1)C(N)=O` (stereo not shown) [Example 168, 2-[2-[2-(8-chloro-4-oxo-chromen-2-yl)-5-(trifluoromethyl)phenoxy]ethylamino]propanamide] it is 1.14 µM.
Next, `Cc1cc(-c2cc(=O)c3cccc(Cl)c3o2)c(OCCN2CCC[C@@H]2C(=O)O)cc1Br` [Example 044, (2R)-1-[2-[5-bromo-2-(8-chloro-4-oxo-chromen-2-yl)-4-methyl-phenoxy]ethyl]pyrrolidine-2-carboxylic acid]: 4.75 µM; `CC(C)COc1ccc(-c2cc(=O)c3cccc(Cl)c3o2)c(OCCN2CC[C@H](C(=O)O)C2)c1` [Example 040, (3S)-1-[2-[2-(8-chloro-4-oxo-chromen-2-yl)-5-isobutoxy-phenoxy]ethyl]pyrrolidine-3-carboxylic acid]: 9.06 µM; `O=c1cc(-c2ccc(C(F)(F)F)cc2OCCCN([C@H]2C[C@@H](C(=O)O)C2)S(=O)(=O)c2ccccc2)oc2c(Cl)cccc12` [Example 141]: 0.35 µM.
With `CCOC(=O)C(=O)N(C)CCOc1cc(C)ccc1-c1cc(=O)c2cccc(Cl)c2o1` [Example 137, ethyl 2-[2-[2-(8-chloro-4-oxo-chromen-2-yl)-5-methyl-phenoxy]ethyl-methyl-amino]-2-oxo-acetate], the IC50 is 3.4 µM.
Regarding `COc1cc(OCCNC(=O)C(=O)O)c(-c2cc(=O)c3cccc(Cl)c3o2)cc1OC` [Example 114], the IC50 was 0.87 µM.
Next, `COC(=O)NCCOc1cc(Br)ccc1-c1cc(=O)c2cccc(Cl)c2o1` [Example 105]: 1.9 µM; `CS(=N)(=O)C1CCN(CCOc2cc(C(F)(F)F)ccc2-c2cc(=O)c3cccc(Cl)c3o2)CC1` (stereo not shown) [Example 094, 8-chloro-2-[2-[2-[4-(methylsulfonimidoyl)-1-piperidyl]ethoxy]-4-(trifluoromethyl)phenyl]chromen-4-one]: 9.79 µM; `O=c1cc(-c2ccc(C(F)(F)F)cc2OCCNS(=O)(=O)C2CC2)oc2c(Cl)cccc12` [Example 096]: 0.13 µM.
In the case of `COc1ccc(-c2cc(=O)c3cccc(Cl)c3o2)c(OCCNC(=O)C(=O)O)c1` [Example 111, 2-[2-[2-(8-chloro-4-oxo-chromen-2-yl)-5-methoxy-phenoxy]ethylamino]-2-oxo-acetic acid], the IC50 worked out at 0.18 µM.
The figure for `CCOC(=O)C(=O)NCCCOc1cc(C)ccc1-c1cc(=O)c2cccc(Cl)c2o1` [Example 095, ethyl 2-[3-[2-(8-chloro-4-oxo-chromen-2-yl)-5-methyl-phenoxy]propylamino]-2-oxo-acetate] is 9.3 µM; for `O=C(O)[C@@H]1C[C@H](NCCCOc2cc(Br)ccc2-c2cc(=O)c3cccc(Cl)c3o2)CCO1` (relative stereo) [Example 060, cis-4-[3-[5-bromo-2-(8-chloro-4-oxo-chromen-2-yl)phenoxy]propylamino]tetrahydropyran-2-carboxylic acid] it is 4.87 µM; for `COc1cc(OCCOCCN2CC[C@H](C(=O)O)C2)c(-c2cc(=O)c3cccc(Cl)c3o2)cc1C` [Example 051, (3S)-1-[2-[2-[2-(8-chloro-4-oxo-chromen-2-yl)-5-methoxy-4-methyl-phenoxy]ethoxy]ethyl]pyrrolidine-3-carboxylic acid] it is 7.86 µM.
As for `CCOC(=O)C(=O)NCCCOc1cc(C(F)(F)F)ccc1-c1cc(=O)c2cccc(Cl)c2o1` [Example 100, ethyl 2-[3-[2-(8-chloro-4-oxo-chromen-2-yl)-5-(trifluoromethyl)phenoxy]propylamino]-2-oxo-acetate], the IC50 turned out to be 3.84 µM.
Next, `Cc1cc(-c2cc(=O)c3cccc(Cl)c3o2)c(OCCOCCN2CCC[C@@H]2C(=O)O)cc1Br` [Example 048, (2R)-1-[2-[2-[5-bromo-2-(8-chloro-4-oxo-chromen-2-yl)-4-methyl-phenoxy]ethoxy]ethyl]pyrrolidine-2-carboxylic acid]: 6.68 µM.
On to `O=C(O)C1CCN(CCOc2cc(Br)ccc2-c2cc(=O)c3cccc(Cl)c3o2)C1` (stereo not shown) [Example 021, 1-[2-[5-bromo-2-(8-chloro-4-oxo-chromen-2-yl)phenoxy]ethyl]pyrrolidine-3-carboxylic acid], for which the IC50 was determined as 0.18 µM.
The figure for `CS(=O)(=O)NC(=O)[C@@H]1CCN(CCCOc2cc(C(F)(F)F)ccc2-c2cc(=O)c3cccc(Cl)c3o2)C1` [Example 065, (3R)-1-[3-[2-(8-chloro-4-oxo-chromen-2-yl)-5-(trifluoromethyl)phenoxy]propyl]-N-methylsulfonyl-pyrrolidine-3-carboxamide] is 7.21 µM; for `O=c1cc(-c2ccc(Br)cc2OCCN[C@H]2CC[C@@H](C(=O)O)CC2)oc2c(Cl)cccc12` [Example 055, cis-4-[2-[5-bromo-2-(8-chloro-4-oxo-chromen-2-yl)phenoxy]ethylamino]cyclohexanecarboxylic acid] it is 0.98 µM.
On to `O=C(O)C(=O)NCCOc1cc(Br)ccc1-c1cc(=O)c2cccc(Cl)c2o1` [Example 113], for which the 50% inhibitory concentration (IC50) is 0.49 µM.
Consider `O=C(O)C1CCN(CCOc2ccccc2-c2cc(=O)c3cccc(Cl)c3o2)CC1` [Example 029, 1-[2-[2-(8-chloro-4-oxo-chromen-2-yl)phenoxy]ethyl]piperidine-4-carboxylic acid], for which the IC50 came to 1.85 µM.
The figure for `Cc1ccc(-c2cc(=O)c3cccc(Cl)c3o2)c(O[C@H]2CCN(C(=O)C(=O)O)C2)c1` [Example 132] is 0.35 µM.
Next, `CCOC(=O)NCCOc1cc(Br)ccc1-c1cc(=O)c2cccc(Cl)c2o1` [Example 106]: 1.1 µM; `CS(=O)(=O)NC(=O)C1CCCN1CCOc1cc(Br)ccc1-c1cc(=O)c2cccc(Cl)c2o1` (stereo not shown) [Example 074, 1-[2-[5-bromo-2-(8-chloro-4-oxo-chromen-2-yl)phenoxy]ethyl]-N-methylsulfonyl-pyrrolidine-2-carboxamide]: 1.03 µM; `Cc1ccc(-c2cc(=O)c3cccc(Cl)c3o2)c(OCCNC(=O)C(=O)N2CC[C@H](O)C2)c1` [Example 150, N-[2-[2-(8-chloro-4-oxo-chromen-2-yl)-5-methyl-phenoxy]ethyl]-2-[(3S)-3-hydroxypyrrolidin-1-yl]-2-oxo-acetamide]: 12.2 µM.
As to `O=c1cc(-c2ccc(C(F)(F)F)cc2OCCCNS(=O)(=O)c2ccccc2)oc2c(Cl)cccc12` [Example 097], the IC50 was 1.16 µM.
The figure for `O=C(O)[C@H]1CCCN1CCCOc1cc(Br)ccc1-c1cc(=O)c2cccc(Cl)c2o1` [Example 003, (2R)-1-[3-[5-bromo-2-(8-chloro-4-oxo-chromen-2-yl)phenoxy]propyl]pyrrolidine-2-carboxylic acid] is 2.41 µM; for `Cc1cc(-c2cc(=O)c3cccc(Cl)c3o2)c(OCCCNC2CC(C(=O)O)C2)cc1Cl` (stereo not shown) [Example 046, 3-[3-[5-chloro-2-(8-chloro-4-oxo-chromen-2-yl)-4-methyl-phenoxy]propylamino]cyclobutanecarboxylic acid] it is 4.37 µM.
Next, `CCOC(=O)C(=O)N(CCCOc1cc(C(F)(F)F)ccc1-c1cc(=O)c2cccc(Cl)c2o1)S(=O)(=O)CC` [Example 138, ethyl 2-[3-[2-(8-chloro-4-oxo-chromen-2-yl)-5-(trifluoromethyl)phenoxy]propyl-ethylsulfonyl-amino]-2-oxo-acetate]: 4.56 µM; `COc1cc(OCCNC(=O)C(=O)O)c(-c2cc(=O)c3cccc(Cl)c3o2)cc1Br` [Example 122]: 7.72 µM.
The figure for `CS(=O)(=O)NC(=O)[C@H]1CCN(CCOc2cc(Br)ccc2-c2cc(=O)c3cccc(Cl)c3o2)C1` [Example 069] is 1.77 µM.

The values above are taken from US20220169639A1 (priority 2018, published 2022).
